EC50 data for one compound are collected here from patent US10000512B2, “Compounds for the treatment of infectious diseases” (Hoffmann-La Roche Inc., priority 2014, dated 2018).

pEC50: −log10 of the molar value.

One test deals with T1, human TLR7 (Homo sapiens, UniProt Q9NYK1).
T1 sequence (Q9NYK1 27-1049): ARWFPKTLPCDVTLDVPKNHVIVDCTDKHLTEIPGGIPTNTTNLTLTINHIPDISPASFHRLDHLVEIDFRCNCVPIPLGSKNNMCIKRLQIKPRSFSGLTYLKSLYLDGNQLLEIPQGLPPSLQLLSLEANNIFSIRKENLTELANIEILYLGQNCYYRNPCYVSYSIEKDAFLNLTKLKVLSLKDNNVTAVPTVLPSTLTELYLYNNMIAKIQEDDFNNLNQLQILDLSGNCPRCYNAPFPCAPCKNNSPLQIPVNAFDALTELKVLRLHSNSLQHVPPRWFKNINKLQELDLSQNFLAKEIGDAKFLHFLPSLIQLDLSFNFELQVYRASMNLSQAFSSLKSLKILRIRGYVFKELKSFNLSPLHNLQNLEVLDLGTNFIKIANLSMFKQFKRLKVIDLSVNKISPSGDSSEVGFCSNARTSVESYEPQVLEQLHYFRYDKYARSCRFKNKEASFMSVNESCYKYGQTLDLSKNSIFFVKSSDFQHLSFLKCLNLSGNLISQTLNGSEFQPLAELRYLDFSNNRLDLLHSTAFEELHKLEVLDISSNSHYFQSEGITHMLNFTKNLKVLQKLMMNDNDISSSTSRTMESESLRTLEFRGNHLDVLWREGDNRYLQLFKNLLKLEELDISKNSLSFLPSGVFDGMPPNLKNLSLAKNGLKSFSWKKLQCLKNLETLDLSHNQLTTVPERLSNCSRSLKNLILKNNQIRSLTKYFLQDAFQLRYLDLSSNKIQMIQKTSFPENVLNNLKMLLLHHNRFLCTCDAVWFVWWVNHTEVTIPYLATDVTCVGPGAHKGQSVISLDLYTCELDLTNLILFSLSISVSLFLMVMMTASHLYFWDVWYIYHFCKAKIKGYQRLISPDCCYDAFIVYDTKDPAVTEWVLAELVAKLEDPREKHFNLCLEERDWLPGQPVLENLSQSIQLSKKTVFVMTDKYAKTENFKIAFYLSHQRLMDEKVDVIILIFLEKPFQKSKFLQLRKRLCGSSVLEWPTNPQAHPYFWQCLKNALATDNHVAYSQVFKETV
Kind of test: HEK293-Blue-hTLR-7 cells assay (SEAP reporter). Particulars: 20 hours incubation. It counts as cell-based. The text has this:
A stable HEK293-Blue-hTLR-7 cell line was purchased from InvivoGen (Cat.#: hkb-ht1r7, San Diego, Calif., USA). These cells were designed for studying the stimulation of human TLR7 by monitoring the activation of NF-κB. A SEAP (secreted embryonic alkaline phosphatase) reporter gene was placed under the control of the IFN-β minimal promoter fused to five NF-κB and AP-1-binding sites. The SEAP was induced by activating NF-κB and AP-1 via stimulating HEK-Blue hTLR7 cells with TLR7 ligands. Therefore the reporter expression was regulated by the NF-κB promoter upon stimulation of human TLR7 for 20 hours. The cell culture supernatant SEAP reporter activity was determined using QUANTI-Blue™ kit (Cat.#: rep-qb1, Invivogen, San Diego, Calif., USA) at a wavelength of 640 nm, a detection medium that turns purple/blue in the presence of alkaline phosphatase.
HEK293-Blue-hTLR7 cells were incubated at a density of 250,000˜450,000 cells/mL in a volume of 180 μL in a 96-well plate in Dulbecco's Modified Eagle's medium (DMEM) containing 4.5 g/L glucose, 50 U/mL penicillin, […] streptomycin, […] Normocin, 2 mM L-glutamine, 10% (v/v) heat-inactivated fetal bovine serum for 24 h. Then the HEK293-Blue-hTLR-7 cells were incubated with addition of 20 μL test compound in a serial dilution in the presence of final DMSO at 1% and perform incubation under 37° C. in a CO2 incubator for 20 hours. Then 20 μL of the supernatant from each well was incubated with 180 μL Quanti-blue substrate solution at 37° C. for 2 h and the absorbance was read at 620˜655 nm using a spectrophotometer. The signalling pathway that TLR7 activation leads to downstream NF-κB activation has been widely accepted, and therefore similar reporter assay was also widely used for evaluating TLR7 agonist (Tsuneyasu Kaisho and Takashi Tanaka, Trends in Immunology, Volume 29, Issue 7, July 2008, […]; Hiroaki Hemmi et al, Nature Immunology 3, 196-200 (2002).

In the next test the target is T2, murine TLR7 (Mus musculus, UniProt P58681).
T2 sequence (P58681 27-1050): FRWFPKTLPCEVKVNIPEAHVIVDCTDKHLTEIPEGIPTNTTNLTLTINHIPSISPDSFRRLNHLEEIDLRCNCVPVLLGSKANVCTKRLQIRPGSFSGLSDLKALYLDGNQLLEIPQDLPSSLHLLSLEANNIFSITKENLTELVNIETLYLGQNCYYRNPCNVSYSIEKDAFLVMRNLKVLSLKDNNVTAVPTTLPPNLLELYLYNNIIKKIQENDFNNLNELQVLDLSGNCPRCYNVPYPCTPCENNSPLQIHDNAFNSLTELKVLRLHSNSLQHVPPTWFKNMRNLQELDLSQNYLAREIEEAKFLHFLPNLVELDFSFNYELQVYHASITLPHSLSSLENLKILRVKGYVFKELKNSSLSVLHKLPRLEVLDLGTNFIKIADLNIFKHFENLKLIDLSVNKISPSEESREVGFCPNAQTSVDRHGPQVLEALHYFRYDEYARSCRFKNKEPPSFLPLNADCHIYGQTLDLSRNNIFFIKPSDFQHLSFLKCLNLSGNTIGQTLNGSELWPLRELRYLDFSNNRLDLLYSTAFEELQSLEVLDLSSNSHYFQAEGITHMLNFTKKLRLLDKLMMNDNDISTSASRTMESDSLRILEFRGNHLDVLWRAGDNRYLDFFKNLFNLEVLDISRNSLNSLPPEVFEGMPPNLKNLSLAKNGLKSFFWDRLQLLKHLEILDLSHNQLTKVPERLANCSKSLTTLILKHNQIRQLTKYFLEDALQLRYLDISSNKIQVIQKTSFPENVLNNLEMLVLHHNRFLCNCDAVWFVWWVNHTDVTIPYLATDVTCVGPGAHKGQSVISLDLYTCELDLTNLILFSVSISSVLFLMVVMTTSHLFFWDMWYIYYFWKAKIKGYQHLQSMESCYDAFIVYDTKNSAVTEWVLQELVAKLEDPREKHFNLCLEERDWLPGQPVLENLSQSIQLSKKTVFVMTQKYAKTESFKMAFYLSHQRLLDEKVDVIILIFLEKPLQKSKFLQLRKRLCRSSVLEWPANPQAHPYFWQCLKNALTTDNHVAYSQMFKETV
Put plainly: HEK293-Blue-mTLR7 assay (SEAP reporter). The test is classed as cell-based. The settings on record: HEK293-Blue-mTLR7 cells, 20 hours, Quanti-Blue; read-out: EC50 murine TLR7 activation. The procedure:
The potency of the TLR7 agonist Example 4-A was assessed in murine TLR7 activation using a stable HEK293-Blue-mTLR7 cell line purchased from InvivoGen (Cat.#: hkb-mt1r7, San Diego, Calif., USA). Similar to the HEK293-Blue-hTLR7 as described in Example 26, the HEK293-Blue-mTLR7 was designed for studying the stimulation of murine TLR7 by monitoring the activation of NF-κB. A SEAP reporter gene was placed under the control of the IFN-β minimal promoter fused to five NF-κB and AP-1-binding sites. SEAP expression was induced by the activation of NF-κB and AP-1 upon stimulation of murine TLR7 with TLR7 ligands. SEAP expression in cell culture supernatant was determined using QUANTI-Blue™ kit (Cat.#: rep-qb1, Invivogen, San Diego, Ca, USA) at a wavelength of 640 nm, a detection medium that turns purple/blue in the presence of alkaline phosphatase.
HEK293-Blue-mTLR7 cells were incubated at a density of 250,000˜450,000 cells/mL in a volume of 180 μL in a 96-well plate in Dulbecco's Modified Eagle's medium (DMEM) containing 4.5 g/L glucose, 50 U/mL penicillin, […], […], 2 mM L-glutamine, 10% (v/v) heat-inactivated fetal bovine serum for 24 h. […] Then 20 μL of the supernatant from each well was incubated with 180 μl Quanti-blue substrate solution at 37° C. for 2 hours and the absorbance was read at 640 nm using a spectrophotometer.

Turning to `Nc1nc2c(sc(=O)n2[C@H]2CS[C@@H](C(O)C3CC3)O2)c(=O)[nH]1` (single isomer, unassigned) [Example 4-A], the values for the negative logarithm of the EC50 (pEC50) on human TLR7 and at murine TLR7 were 5.10 and 5.11, respectively.
